Results taken from the NIST ThermoML archive (doi:10.1021/je400332j).

Assay: xn = mol fraction of the nth substance listed
Conditions: 101 kPa, Liquid; for viscosity: Concentric cylinders viscometry; for mass density: Vibrating tube method

CCCn1cc[n+](C)c1.F[B-](F)(F)F [1-propyl-3-methylimidazolium tetrafluoroborate] + CCCCCCn1cc[n+](C)c1.F[B-](F)(F)F
Conditions | mass density [kg/m3] | viscosity [mPa·s]
293.15 K, x1 = 0.1006 | 1154.7 | 257.8
293.15 K, x1 = 0.2005 | 1162.5 | 233.5
293.15 K, x1 = 0.2995 | 1170.4 | 212.7
293.15 K, x1 = 0.3996 | 1179.1 | 195.9
293.15 K, x1 = 0.4991 | 1188.1 | 176.5
293.15 K, x1 = 0.601 | 1197.2 | 158.4
293.15 K, x1 = 0.7001 | 1207.1 | 141.4
293.15 K, x1 = 0.8 | 1217.3 | 125.1
293.15 K, x1 = 0.8987 | 1228 | 110.2
293.15 K, x1 = 1 | 1239.3 | 95.44
298.15 K, x1 = 0.1006 | 1151.2 | 190.4
298.15 K, x1 = 0.2005 | 1159.1 | 173.1
298.15 K, x1 = 0.2995 | 1167.1 | 158.5
298.15 K, x1 = 0.3996 | 1175.6 | 146.3
298.15 K, x1 = 0.4991 | 1184.5 | 132.5
298.15 K, x1 = 0.601 | 1193.7 | 119.6
298.15 K, x1 = 0.7001 | 1203.6 | 107.2
298.15 K, x1 = 0.8 | 1213.9 | 95.66
298.15 K, x1 = 0.8987 | 1224.5 | 84.81
298.15 K, x1 = 1 | 1235.7 | 74.04
303.15 K, x1 = 0.1006 | 1147.8 | 143.5
303.15 K, x1 = 0.2005 | 1155.6 | 131.1
303.15 K, x1 = 0.2995 | 1163.5 | 120.5
303.15 K, x1 = 0.3996 | 1172 | 111.6
303.15 K, x1 = 0.4991 | 1181 | 101.6
303.15 K, x1 = 0.601 | 1190.2 | 92.16
303.15 K, x1 = 0.7001 | 1200 | 83.12
303.15 K, x1 = 0.8 | 1210.2 | 74.61
303.15 K, x1 = 0.8987 | 1220.8 | 66.57
303.15 K, x1 = 1 | 1232 | 58.59
308.15 K, x1 = 0.1006 | 1144.4 | 110.3
308.15 K, x1 = 0.2005 | 1152.1 | 101.2
308.15 K, x1 = 0.2995 | 1160.1 | 93.37
308.15 K, x1 = 0.3996 | 1168.6 | 86.79
308.15 K, x1 = 0.4991 | 1177.4 | 79.34
308.15 K, x1 = 0.601 | 1186.7 | 72.34
308.15 K, x1 = 0.7001 | 1196.4 | 65.59
308.15 K, x1 = 0.8 | 1206.6 | 59.23
308.15 K, x1 = 0.8987 | 1217.2 | 53.19
308.15 K, x1 = 1 | 1228.3 | 47.16
313.15 K, x1 = 0.1006 | 1141 | 86.32
313.15 K, x1 = 0.2005 | 1148.6 | 79.47
313.15 K, x1 = 0.2995 | 1156.6 | 73.61
313.15 K, x1 = 0.3996 | 1165.1 | 68.66
313.15 K, x1 = 0.4991 | 1173.9 | 63.07
313.15 K, x1 = 0.601 | 1183.2 | 57.75
313.15 K, x1 = 0.7001 | 1192.8 | 52.63
313.15 K, x1 = 0.8 | 1203 | 47.79
313.15 K, x1 = 0.8987 | 1213.5 | 43.19
313.15 K, x1 = 1 | 1224.7 | 38.56
318.15 K, x1 = 0.1006 | 1137.6 | 68.62
318.15 K, x1 = 0.2005 | 1145.2 | 63.43
318.15 K, x1 = 0.2995 | 1153.1 | 58.96
318.15 K, x1 = 0.3996 | 1161.6 | 55.18
318.15 K, x1 = 0.4991 | 1170.4 | 50.91
318.15 K, x1 = 0.601 | 1179.7 | 46.8
318.15 K, x1 = 0.7001 | 1189.3 | 42.87
318.15 K, x1 = 0.8 | 1199.4 | 39.14
318.15 K, x1 = 0.8987 | 1209.9 | 35.56
318.15 K, x1 = 1 | 1221 | 31.98
323.15 K, x1 = 0.1006 | 1134.2 | 55.36
323.15 K, x1 = 0.2005 | 1141.7 | 51.35
323.15 K, x1 = 0.2995 | 1149.6 | 47.9
323.15 K, x1 = 0.3996 | 1158.1 | 44.99
323.15 K, x1 = 0.4991 | 1166.9 | 41.66
323.15 K, x1 = 0.601 | 1176.1 | 38.47
323.15 K, x1 = 0.7001 | 1185.8 | 35.41
323.15 K, x1 = 0.8 | 1195.8 | 32.48
323.15 K, x1 = 0.8987 | 1206.2 | 29.67
323.15 K, x1 = 1 | 1217.4 | 26.83
328.15 K, x1 = 0.1006 | 1130.8 | 45.26
328.15 K, x1 = 0.2005 | 1138.3 | 42.13
328.15 K, x1 = 0.2995 | 1146.2 | 39.43
328.15 K, x1 = 0.3996 | 1154.7 | 37.15
328.15 K, x1 = 0.4991 | 1163.4 | 34.53
328.15 K, x1 = 0.601 | 1172.6 | 32.02
328.15 K, x1 = 0.7001 | 1182.3 | 29.61
328.15 K, x1 = 0.8 | 1192.1 | 27.28
328.15 K, x1 = 0.8987 | 1202.7 | 25.04
328.15 K, x1 = 1 | 1213.8 | 22.77
333.15 K, x1 = 0.1006 | 1127.4 | 37.44
333.15 K, x1 = 0.2005 | 1134.9 | 34.97
333.15 K, x1 = 0.2995 | 1142.7 | 32.83
333.15 K, x1 = 0.3996 | 1151.3 | 31.04
333.15 K, x1 = 0.4991 | 1159.9 | 28.95
333.15 K, x1 = 0.601 | 1169.2 | 26.95
333.15 K, x1 = 0.7001 | 1178.7 | 25.03
333.15 K, x1 = 0.8 | 1188.6 | 23.15
333.15 K, x1 = 0.8987 | 1199.1 | 21.37
333.15 K, x1 = 1 | 1210.2 | 19.54
338.15 K, x1 = 0.1006 | 1124.1 | 31.31
338.15 K, x1 = 0.2005 | 1131.5 | 29.33
338.15 K, x1 = 0.2995 | 1139.3 | 27.63
338.15 K, x1 = 0.3996 | 1147.8 | 26.21
338.15 K, x1 = 0.4991 | 1156.5 | 24.53
338.15 K, x1 = 0.601 | 1165.7 | 22.92
338.15 K, x1 = 0.7001 | 1175.2 | 21.38
338.15 K, x1 = 0.8 | 1185.2 | 19.85
338.15 K, x1 = 0.8987 | 1195.5 | 18.4
338.15 K, x1 = 1 | 1206.6 | 16.92
343.15 K, x1 = 0.1006 | 1120.7 | 26.45
343.15 K, x1 = 0.2005 | 1128.1 | 24.83
343.15 K, x1 = 0.2995 | 1135.9 | 23.46
343.15 K, x1 = 0.3996 | 1144.4 | 22.3
343.15 K, x1 = 0.4991 | 1153 | 20.96
343.15 K, x1 = 0.601 | 1162.2 | 19.65
343.15 K, x1 = 0.7001 | 1171.7 | 18.4
343.15 K, x1 = 0.8 | 1181.6 | 17.19
343.15 K, x1 = 0.8987 | 1192 | 15.98
343.15 K, x1 = 1 | 1203 | 14.77
